Patent US20230151021A1, “Compounds and Compositions for Treating Hematologic Malignancies” (priority 2020, published 2023)
Read-outs that look alike come from different tables or passages of the source.

Legend:
LCL1 cells = assay: Cell viability assay (CellTiter-Glo luminescence); type: cell-based; conditions: Homo sapiens; LCL1, 5000 cells, 72 hours; read-out: half-maximal inhibitory concentration (IC50)
[1] = MetID profile in mouse liver microsomes; type: in vitro ADME; conditions: 60 min of incubation
Description: In order to determine if 26 induces liver microsomal metabolism changes, the MetID profile of 26 in mouse liver microsomes was investigated under the same conditions as for brusatol. […] However, 87% of 26 (area %) was detected after 60 min of incubation while five identified metabolites were all in relatively small percentages.

Raji cells [2] = assay: cells; type: cell-based, human; conditions: for activity on viability of Raji cells (in words): 100 nM for 72 h
[3] = Stability in simulated intestinal fluid
NOD/SCID mice = assay: In vivo toxicity test; conditions: 24 days; for survival: 4 mice per group
Description: […]; 4 mice per group) were intraperitoneally injected with a maximum dose of […] of Brusatol, #15 or #26 compound every other day (three times per week). The survival rate was recorded to monitor the tolerance of the compounds in these mice.
[…]. Six-week-old male NOD.CB17PrkdcSCID/J (NOD/SCID) mice (Jackson Labs, Bar Harbor, Me., USA; 4 mice per group) were intraperitoneally injected with a dose of 5 mg/kg of one of three compounds—brusatol, 15, or 26—every other day, three times per week. The mice were monitored and euthanized after 24 days of treatment. […]. […] […].

AKT1, GSK3, and mTOR = assay: Western blot of PI3K/AKT regulated signaling proteins; type: cell-based, human; conditions: Raji and SU-DHL-4 cells; 0, 50 nM, 100 nM; 0, 12 hours, 24 hours
Description: Western blot analyses were performed as previously described. Briefly, total cell lysates were separated by SDS-PAGE gel and transferred to nitrocellulose membrane. The membranes were blocked with 5% non-fat milk, probed with specific antibodies, and visualized using the Odyssey scanner (LiCor Inc., Lincoln, Nebr.).

Plasma stability [4] = assay: Plasma stability
SU-DHL-4 cells [5] = assay: Cell viability assay (CellTiter-Glo luminescence); type: cell-based; conditions: Homo sapiens, SU-DHL-4, 48 h, read-out: viability of cells inhibited
K562 cells = assay: Cell cycle assay (PI staining, flow cytometry); type: cell-based, human; conditions: K562, 100 nM, 48 hours
Description: (§1) 5 million cells were harvested, fixed with 80% ethanol for 2 hours or overnight at −20° C., then washed with PBS and incubated with Propidium iodide (PI) staining buffer (0.5 mg/ml propidium iodide in PBS with 50 μg/ml RNase A) for 30 minutes at room temperature. The stained cells were resuspended in PBS and analyzed on a FACSCalibur system (Becton Dickinson, San Jose, Calif., USA) using FlowJo software (TreeStar, San Carlos, Calif., USA).

SU-DHL-4 cells [6] = assay: Cell cycle assay (PI staining, flow cytometry); type: cell-based, human; conditions: SU-DHL-4, 100 nM, 48 hours
Description: as §1

Raji cells [7] = assay: Cell cycle assay (PI staining, flow cytometry); type: cell-based, human; conditions: 100 nM, 48 hours
Description: as §1

HL-60 cells = assay: Cell cycle assay (PI staining, flow cytometry); type: cell-based, human; conditions: HL-60, 100 nM, 48 hours
Description: as §1

[8] = Stability in simulated gastric fluid
Plasma stability [9] = assay: Plasma stability; remark: listed apart in the source
[10] = test system: HL60, K562, MOLM14 and SU-DHL-4 cell lines; assay: IC50 of Brusatol in less and more sensitive cell lines; type: cell-based, human; conditions: 72 hours
Description: FIGS. 5A-5F: PI3K family of proteins is crucial for Brusatol-mediated inhibitory effects. FIG. 5A: IC50 assays of Brusatol were determined in the indicated cancer cells. All of the cells were treated for 72 hours. […] NS, not significant. […] Then cells were fixed and stained with PI. Flow cytometry assays were performed to determine cell cycle progression. The subG1 population in cells was labeled as the percentage. […] FIG. 5F: The described cells were incubated with Brusatol (0, 50 nM, 100 nM) for different periods (0, 12 hours, 24 hours).

MOLM14 xenografts = assay: In vivo tumorigenic assay using xenografts; set-up: species or system NOD/SCID mice; conditions: 2 mg/kg intraperitoneally three times per week, two weeks
Description: Six-week-old male NOD.CB17-Prkdc^scid/J (NOD/SCID) mice (Jackson Labs, Bar Harbor, Me., USA) were used as the human-in-mouse xeno-transplantation model. MOLM14 cells (1×10^7 cells) were injected into the subcutaneous space on the left flank of the mice. Once xenografts reached a size of 100 mm^3, Brusatol and analogs (14, 15, 26, 31) at 2 mg/kg body weight or PBS were injected intraperitoneally three times per week. Body weight and tumor size were monitored before every injection. After treatment for two weeks, the mice were euthanized by CO2 inhalation and the tumors were carefully excised. The tumor volume (mm^3) was measured and calculated using the formula (a×b×b)/2 (a, the largest diameter of two measurements; b, the smallest diameter of two measurements).

[11] = test system: 13 cell lines representing a range of hematologic malignancies; assay: Cell viability in panel of hematologic malignancy derived cell lines; conditions: 100 nM, 72 hours
Description: Cell viability was determined after 72 hours by detecting luminescence. ALL, acute lymphoblastic leukemia; BL, Burkitt's lymphoma; DLBCL, diffuse large B-cell lymphoma; MCL, mantle cell lymphoma; AML, acute myeloid leukemia; MM, multiple myeloma; LCLs, lymphoblastoid cell lines.
(§2) 5000 cells as indicated were cultured in 96-well plate with 100 μl of media. On the next day, Brusatol or associated analogs were added once to the cells without media change. After treatment, the cells were incubated with 100 μl buffer for 10 minutes at room temperature following the instructions of CellTiter-Glo kit (Promega, Madison, Wis.). Luminescence was detected using a multi-mode reader Cytation 5 (BioTek, Winooski, Vt.). Brusatol or its analogs are dissolved in 100% ethanol and diluted in 1×PBS for treatment. Two independent experiments done in duplicates were performed.

[12] = not given; remark: listed apart in the source
[13] = 60 min
[14] = 60 min; remark: listed apart in the source
[15] = test system: MOLT-4, SU-DHL-6, SU-DHL-10, RPMI-8226, and LCL1; assay: Cell viability in five additional cell lines; conditions: MOLT-4, SU-DHL-6, SU-DHL-10, RPMI-8226, LCL1
Description: as §2
To investigate their inhibitory activities on the growth of EBV-associated lymphomas and other types of lymphomas, conjugates were first investigated for their effects on the viability of Raji cells, a Burkitt's lymphoma (BL) cell line, when treated at 100 nM for 72 h. […] These cell lines represent the cell models of a range of hematologic malignancies.

[16] = 5 mg/kg intraperitoneally every other day
[17] = 10 mg/kg intraperitoneally every other day

COC(=O)[C@@]12OC[C@]34C([C@@H](O)[C@@H]1O)[C@@]1(C)CC(=O)C(O)=C(C)[C@@H]1C[C@H]3OC(=O)[C@H](OC(=O)C=C(C)C)[C@@H]24 (stereo partly drawn) [Brusatol, methyl (1R,2S,3S,3aS,3a1R,4R,6aR,7aR,11aS)-1,2,9-trihydroxy-8,11a-dimethyl-4-((3-methylbut-2-enoyl)oxy)-5,10-dioxo-1,4,5,6a,7,7a,10,11,11a,11b-decahydro-2H-3,3a1-(epoxymethano)dibenzo[de,g]chromene-3(3aH)-carboxylate]
IC50 (LCL1 cells): 2 to 6 nM
parent detected after incubation in mouse liver microsomes (area %) [1]: 40%
cytotoxicity at 0.1 µM (Raji cells [2]; Homo sapiens, 100 nM, 48 hours post-treatment, read-out: viability of cells inhibited): > 80%
IC50 (Raji cells [2]; Homo sapiens, 5000 cells, 72 hours, read-out: half-maximal inhibitory concentration (IC50)): 2 to 6 nM
Stability in simulated intestinal fluid (% at 4 h) [3]: 100%
mice survived (of four) (NOD/SCID mice; [16]): three
survival (NOD/SCID mice; [16]): 75%
protein expression of AKT1, GSK3, and mTOR (in words) (AKT1, GSK3, and mTOR): significantly reduced
Plasma stability remaining % at 60 min, human (Plasma stability [4]): 91%
cytotoxicity at 0.1 µM (SU-DHL-4 cells [5]): > 80%
cells in the sub-G1 phase (K562 cells): 3.19%
cells in the sub-G1 phase (SU-DHL-4 cells [6]): 67.9%
cells in the sub-G1 phase (Raji cells [7]): 68.4%
cells in the sub-G1 phase (HL-60 cells): 7.63%
Stability in simulated gastric fluid (% at 4 h) [8]: 109%
Plasma stability remaining % at 60 min, rat (Plasma stability [9]): 100%
fold more sensitive (IC50), MOLM14 and SU-DHL-4 compared to HL60 and K562 [10]: about 10 fold

COC(=O)[C@@]12OC[C@]34C([C@@H](O)[C@@H]1O)[C@@]1(C)CC(=O)C(OC(=O)CNC(=O)OC(C)(C)C)=C(C)[C@@H]1C[C@H]3OC(=O)[C@H](OC(=O)C=C(C)C)[C@@H]24 (stereo partly drawn) [Compound 15, methyl (1R,2S,3S,3aS,3a1R,4R,6aR,7aR,11aS)-9-(((tert-butoxycarbonyl)glycyl)oxy)-1,2-dihydroxy-8,11a-dimethyl-4-((3-methylbut-2-enoyl)oxy)-5,10-dioxo-1,4,5,6a,7,7a,10,11,11a,11b-decahydro-2H-3,3a1-(epoxymethano)dibenzo[de,g]chromene-3(3aH)-carboxylate]
activity on viability of Raji cells (in words) (Raji cells [2]): moderate inhibition
tumor size response (in words) (MOLM14 xenografts): strong and rapid inhibitory response
Stability in simulated intestinal fluid (% at 4 h) [3]: 42%
mice survived (of four) (NOD/SCID mice; [16]): two
survival (NOD/SCID mice; [16]): 50%
toxicity in vivo (in words) (NOD/SCID mice; [17]): obviously lethal for the majority of mice within the first 4 days
survival (NOD/SCID mice; [17]): 0%
inhibition of cell viability (in words) [11]: significantly inhibit cell viability
Stability in simulated gastric fluid (% at 4 h) [8]: 25%

COC(=O)[C@@]12OC[C@]34C([C@@H](O)[C@@H]1O)[C@@]1(C)CC(=O)C(OC(=O)C[C@H](C)N)=C(C)[C@@H]1C[C@H]3OC(=O)[C@H](OC(=O)C=C(C)C)[C@@H]24 (stereo partly drawn) [Compound 26, methyl (1R,2S,3S,3aS,3a1R,4R,6aR,7aR,11aS)-9-(((S)-3-aminobutanoyl)oxy)-1,2-dihydroxy-8,11a-dimethyl-4-((3-methylbut-2-enoyl)oxy)-5,10-dioxo-1,4,5,6a,7,7a,10,11,11a,11b-decahydro-2H-3,3a1-(epoxymethano)dibenzo[de,g]chromene-3(3aH)-carboxylate]
parent detected after incubation in mouse liver microsomes (area %) [1]: 87%
Stability in simulated gastric fluid (% at 4 h): 97%
mice survived (of four) (NOD/SCID mice; [16]): four
toxicity in vivo (in words) (NOD/SCID mice; [16]): did not show any obvious signs of toxicity
toxicity in vivo (in words) (NOD/SCID mice; [17]): did not show any obvious signs of toxicity
Stability in simulated intestinal fluid (% at 4 h) [12]: 76%
percentage of brusatol converted from 26, rat plasma [13]: 60%
percentage of brusatol converted from 26, human plasma [14]: 47%

COC(=O)[C@@]12OC[C@]34C([C@@H](O)[C@@H]1O)[C@@]1(C)CC(=O)C(OCC(=O)NCCN)=C(C)[C@@H]1C[C@H]3OC(=O)[C@H](OC(=O)C=C(C)C)[C@@H]24 (stereo partly drawn) [Compound 40, methyl (1R,2S,3S,3aS,3a1R,4R,6aR,7aR,11aS)-9-(2-((2-aminoethyl)amino)-2-oxoethoxy)-1,2-dihydroxy-8,11a-dimethyl-4-((3-methylbut-2-enoyl)oxy)-5,10-dioxo-1,4,5,6a,7,7a,10,11,11a,11b-decahydro-2H-3,3a1-(epoxymethano)dibenzo[de,g]chromene-3(3aH)-carboxylate]
activity on viability of Raji cells (in words) (Raji cells [2]): moderate activity
activity on five additional cell lines (in words) [15]: moderate to good activities
